Legend:
histamine H2-receptors [1] = test: Inhibition of histamine-stimulated gastric acid secretion from lumen-perfused stomachs of anaesthetised rats; assay type: in vivo; conditions: i.v., lumen-perfused stomachs of rats anaesthetised with urethane
histamine H2-receptors [2] = molecular target: T1, histamine H2-receptors (Cavia porcellus, UniProt P47747); test: Inhibition of histamine-induced tachycardia in the isolated guinea pig atrium; conditions: read-out: effective dose producing 50% inhibition of the histamine-induced tachycardia
T1 construct: histamine-induced tachycardia in the isolated guinea pig atrium; from tissue; host or cells: isolated guinea pig atrium
T1 sequence (P47747 whole entry): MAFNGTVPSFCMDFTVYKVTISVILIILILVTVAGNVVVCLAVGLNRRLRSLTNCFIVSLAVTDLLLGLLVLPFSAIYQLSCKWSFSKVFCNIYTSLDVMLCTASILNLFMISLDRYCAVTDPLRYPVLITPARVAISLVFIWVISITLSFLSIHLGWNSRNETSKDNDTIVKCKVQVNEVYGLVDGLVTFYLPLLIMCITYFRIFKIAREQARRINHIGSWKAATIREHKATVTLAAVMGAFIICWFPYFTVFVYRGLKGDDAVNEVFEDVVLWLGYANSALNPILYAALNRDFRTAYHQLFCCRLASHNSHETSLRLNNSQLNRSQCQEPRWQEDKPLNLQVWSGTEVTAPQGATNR
Text: This procedure is referred to in Ash and Schild, Brit. J. Pharmac. Chemother., 1966. 27. […] For example, they inhibit the actions of histamine on the isolated guinea pig atrium.

For `N=C(N)Nc1nc(CSCCNc2[nH]ccc2[N+](=O)[O-])cs1` [Example 1, 2-[2-(2-Guanidino-4-thiazolylmethylthio)ethylamin]-3-nitropyrrole], the “doses causing 50% inhibition of maximal acid secretion” value (histamine H2-receptors [1]) was “less than 0.1 micromole kg^-1” and the IC50 (histamine H2-receptors [2]) was less than 1000 nM.
